From patent publication US11179391B2, “Compound with kinase inhibitory activity and preparation method and use thereof” (priority 2017, dated 2021)

Legend:
CDK6/cycD3 = CDK6/cycD3 (Homo sapiens, UniProt Q00534); assay: Determination of CDK activity (Caliper mobility shift, FAM-P8 peptide): CDK6; format: biochemical; conditions: CDK6/cycD3; read-out: CDK6 enzymatic inhibitory activity (IC50)
In short: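 GST-CDK6(1-326)/cycD3 with FAM-P8 peptide and ATP, after 10 min room-temperature enzyme–compound preincubation; reaction at 28 °C, then EDTA stop. Substrate conversion read by Caliper mobility shift; inhibition from no-compound and no-enzyme controls, IC50 fitted over 10-point dilution in DMSO.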

CDK1/CyclinB = CDK1/CyclinB (Homo sapiens, UniProt P06493); assay: Determination of CDK activity (Caliper mobility shift, FAM-P8 peptide): CDK1; format: biochemical; conditions: CDK1/CyclinB; read-out: CDK1 enzymatic inhibitory activity (IC50)
[1] = test system: Human colorectal cancer Colo-205 cells; assay: Pharmacodynamic study on mouse Colo-205 model (subcutaneous xenograft); format: in vivo, BALB/c nude mice
Text: BALB/c nude mice, 6-8 weeks old, weighing 12-14 g, female, provided by Shanghai Lab Animal Research Center (Shanghai Xipuer-Beikai) with an animal certificate No: 2008001682093.
The experiment was started after 3-7 days in the experimental environment when the animals arrived. Animals were housed in IVC (independent air supply system) cages (Four animals per cage) in SPF grade experimental animal facilities. Each cage animal information card contained the number of animals in the cage, sex, strain, receiving date, dosing schedule, experiment number, group and start date of the experiment. All cages, bedding, and drinking water were sterilized before use and were updated twice a week.
4.3 Tumor Cell Inoculation Method
Human colorectal cancer Colo-205 cells (ATCC-CCL-222) were cultured in vitro in monolayer under the conditions of RPMI 1640 medium with 10% fetal bovine serum, 100 U/mL penicillin and 100 μg/mL streptomycin, and 37° C. 5% CO2 incubator. The passage was routinely digested with trypsin-EDTA twice a week. When the cell saturation was up to 80%-90% and reached the requirement, the cells were collected, counted and inoculated. 0.2 mL (5×10^6) Colo-205 cells were subcutaneously inoculated on the right back of each mouse, and mice were randomly grouped and dosed when the average tumor volume reached 163 mm^3.
4.14 mL of lactic acid was added to a large beaker containing 800 mL of deionized water, and the pH was adjusted to 4.0 with 5 N NaOH. Then the volume was fixed to 1,000 mL to obtain 50 mmol/L sodium lactate buffer.
The subcutaneous tumor volume of nude mice was measured 2-3 times a week, and the mice were weighed, and the data were recorded.
4.6 Analysis and Evaluation
Experimental evaluation index: the tumor growth inhibition rate TGI (%) or the relative tumor proliferation rate T/C (%) was used for evaluation, wherein T was the experimental group, and C was the vehicle group.

[2] = Colo-205 model, mesylate, 50 mg/kg PO × 28 days, day 28

Chain of CDK6/cycD3 (Q00534 whole entry): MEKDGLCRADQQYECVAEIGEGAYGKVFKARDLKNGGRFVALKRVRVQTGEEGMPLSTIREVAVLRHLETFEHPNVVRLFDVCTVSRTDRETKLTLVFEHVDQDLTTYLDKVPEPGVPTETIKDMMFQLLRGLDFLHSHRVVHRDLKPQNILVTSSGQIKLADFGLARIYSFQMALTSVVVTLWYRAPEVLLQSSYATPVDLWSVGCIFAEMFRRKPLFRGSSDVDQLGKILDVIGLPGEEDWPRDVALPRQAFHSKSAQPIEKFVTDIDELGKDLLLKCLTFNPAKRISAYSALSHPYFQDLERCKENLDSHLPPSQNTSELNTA
Chain of CDK6/cycD3 (P30281 whole entry partner): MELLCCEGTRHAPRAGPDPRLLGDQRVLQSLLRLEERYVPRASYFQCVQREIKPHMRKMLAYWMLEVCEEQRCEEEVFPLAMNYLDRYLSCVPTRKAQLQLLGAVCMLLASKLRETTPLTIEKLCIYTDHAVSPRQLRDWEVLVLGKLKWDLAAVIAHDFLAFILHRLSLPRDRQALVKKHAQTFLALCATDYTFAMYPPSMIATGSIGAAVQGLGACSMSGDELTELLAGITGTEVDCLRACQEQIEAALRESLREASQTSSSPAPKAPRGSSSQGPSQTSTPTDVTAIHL
Chain of CDK1/CyclinB (P06493 whole entry): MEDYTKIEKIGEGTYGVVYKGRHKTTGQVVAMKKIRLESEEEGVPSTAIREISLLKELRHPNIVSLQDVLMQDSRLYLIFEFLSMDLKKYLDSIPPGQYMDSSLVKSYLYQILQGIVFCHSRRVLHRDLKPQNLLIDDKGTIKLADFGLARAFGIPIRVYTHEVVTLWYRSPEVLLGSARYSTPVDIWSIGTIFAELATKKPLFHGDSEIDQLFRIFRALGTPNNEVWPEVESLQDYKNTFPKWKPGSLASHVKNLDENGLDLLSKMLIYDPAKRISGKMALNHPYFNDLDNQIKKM
Chain of CDK1/CyclinB (P14635 whole entry partner): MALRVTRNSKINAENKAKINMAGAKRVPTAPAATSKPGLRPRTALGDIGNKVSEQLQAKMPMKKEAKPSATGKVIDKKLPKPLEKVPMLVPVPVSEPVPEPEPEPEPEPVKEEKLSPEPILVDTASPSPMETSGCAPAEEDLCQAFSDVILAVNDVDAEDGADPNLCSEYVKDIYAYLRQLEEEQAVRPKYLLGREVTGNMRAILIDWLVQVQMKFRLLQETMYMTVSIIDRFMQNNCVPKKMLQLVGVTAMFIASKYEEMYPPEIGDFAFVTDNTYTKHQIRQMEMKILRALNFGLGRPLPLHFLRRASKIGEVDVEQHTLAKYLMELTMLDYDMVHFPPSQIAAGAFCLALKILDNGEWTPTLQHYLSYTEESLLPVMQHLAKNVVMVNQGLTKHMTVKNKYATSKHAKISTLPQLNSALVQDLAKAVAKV

Compound	IC50 (CDK6/cycD3) [nM]	IC50 (CDK1/CyclinB) [nM]	Tumor volume (day 0) ([1]; Colo-205 model, baseline at start of dosing, mesylate, 50 mg/kg PO × 28 days) [mm^3]	antitumor effect compared with Abemaciclib (in words) ([1]; Colo-205 model, same dosage (50 mg/kg PO × 28 days))	Tumor volume (day 28) ([1]; Colo-205 model, mesylate, 50 mg/kg PO × 28 days) [mm^3]	T/C relative tumor proliferation rate [1, 2] [%]	TGI tumor growth inhibition rate [1, 2] [%]	inhibitory effect on the tumor growth (in words) ([1]; Colo-205 nude mouse model, 50 mg/kg, continuous PO administration for 28 days)
CCN1CCC(C(C)c2ccc(Nc3ncc(F)c(-c4cc(F)c5nc(C)n(C(C)C)c5c4)n3)nc2)CC1 (single isomer, unassigned) [Example 17, (R or S)—N-(5-(1-(1-ethylpiperidin-4-yl)ethyl)pyridin-2-yl)-5-fluoro-4-(4-fluoro-1-isopropyl-2-methyl-1H-benzo[d]imidazol-6-yl) pyrimidin-2-amine]	< 100	100 to 500	198	better antitumor effect than positive control compound Abemaciclib	591	18.2	81.8	strong inhibitory effect
CCN1CCC(=Cc2ccc(Nc3ncc(F)c(-c4cc(F)c5nc(C)n(C(C)C)c5c4)n3)nc2)CC1 [Example 57, N-(5-((1-ethylpiperidin-4-ylidene)methyl)pyridin-2-yl)-5-fluoro-4-(4-fluoro-1-isopropyl-2-methyl-1H-benzo[d]imidazol-6-yl)pyrimidin-2-amine]	< 100	100 to 500	–	–	–	–	–	–
